{
  "source": "patent US20220023289A1",
  "about": "“Application Of Pyrroloquinoline Quinone In Preparation Of Medicament Used For Preventing And Treating Acute Altitude Sickness And Acute Altitude Hypoxia Injury” (priority 2018, published 2022)",
  "key": {"[1]": {"system": "rats exposed to acute altitude hypoxia", "test": "Liver function of rats exposed to acute altitude hypoxia", "assay_type": "in vivo, Wistar rat", "protocol": "(§1) Select healthy Wistar rats weight 160-200 g, half female and half male. After feeding for 3 days, these Wistar rats are randomly divided into ten groups according to their body weight, each group has 16±2 rats. The groups are divided as follows: five groups of the hypoxic exposure drug test group, respectively, are given 0.91 mg/kg, 1.83 mg/kg, 3.66 mg/kg, 7.31 mg/kg, and 14.63 mg/kg drugs. […] After continuous intragastric administration for 7 days, the animals in the hypoxic exposure group are simultaneously put into the decompression and hypoxia compound experimental chamber, the hatch is closed, and the pressure is reduced at a speed of 10 m/s. After being raised to an altitude of 6000 m and maintained for 8 hours, the speed in 10 m/s drops is reduced to normal altitude, open the hatch, and then take out the animal, collect blood samples (after standing for 1 hour, the supernatant is centrifuged and stored at −20° C.), and liver tissue samples. Detection indicator includes body weight, serum blood glucose, ATP, lactic acid, endothelin, nitric oxide, SOD, CO, MDA related to oxidative stress, and total protein, albumin, triglycerides, total cholesterol, high-density lipoprotein cholesterol, low-density lipoprotein cholesterol, glutamic pyruvic transaminase, total bilirubin, gluamic oxalacetic transaminase, serum urea nitrogen, creatinine, uric acid, lactate dehydrogenase, creatine kinase, α-hydroxybutyrate dehydrogenase; liver ATP, hepatic glycogen. Except that the formal oxygen control animal group is not put into the decompression and hypoxia compound experimental chamber, other experimental conditions and detection indicators are the same.\n(§2) Measure blood glucose, total protein, albumin, triglycerides, total cholesterol, high-density lipoprotein cholesterol, low-density lipoprotein cholesterol, glutamic-pyruvic transaminase, total bilirubin, glutamic oxalacetic transaminase, serum urea nitrogen, creatinine, uric acid, lactate dehydrogenase, creatine kinase, α-hydroxybutyrate dehydrogenase, blood homocysteine by using an automatic blood biochemical analyzer."}, "[2]": {"system": "mice exposed to high altitude hypoxia", "test": "Exhaustive swimming experiment in mice exposed to high altitude hypoxia (6000 m)", "assay_type": "in vivo, Kunming mice", "excerpt": "Select healthy male Kunming mice weight 18-22 g."}, "[3]": {"system": "rats with acute altitude hypoxia injury", "test": "Oxidative stress indexes of rats with acute altitude hypoxia injury", "assay_type": "in vivo, Wistar rat", "excerpt": "Operate according to the instructions, and then measure the absorbance value of each tube, and afterwards calculate the content of malondialdehyde in the sample to be tested according to the formula. […] The latter oxidizes hydroxylamine to form nitrite. It appears purplish red under the action of chromogenic agent. Measure its absorbance by a visible light spectrophotometer. When the measured sample contains superoxide dismutase, it has specific inhibitory effect on superoxide anion free radicals, make formed nitrite reduced. […] The superoxide dismutase activity in the tested sample can be calculated by formula calculation. […] The latter can form a stable complex with phenanthrophins and measure its antioxidant capacity by colorimetry. Operate according to the kit instructions, measure the absorbance of each tube at a wavelength of 520 nm, and then calculate the total antioxidant capacity in the sample to be tested according to the formula."}, "[4]": {"system": "rats exposed to acute altitude hypoxia", "test": "Endothelial function (serum endothelin-1, nitric oxide) in rats exposed to acute altitude hypoxia", "assay_type": "in vivo, Wistar rat", "settings": "for Endothelin-1 / Nitric oxide: 0.11 g/kg", "excerpt": "This method uses nitrate reductase specificity reduce NO^3− to NO^2−, and then determine the level of its concentration by displaying shades of color. Operate according to the kit instructions, measure the absorbance of each tube at a wavelength of 550 nm, and then calculate the content of nitric oxide of the sample to be tested according to the formula. To the coated microwells pre-coated with rat endothelin (endothelin-1) capture antibody, add in sequence specimens, standards, and HRP-labeled detection antibody, and then incubate and wash thoroughly. Use a substrate TMB for color development. TMB is converted into blue under the catalysis of peroxidase and converted into the final yellow color under the action of acid. The color intensity is positively correlated with the rat endothelin (endothelin-1) in the sample."}, "[5]": {"system": "rats exposed to acute altitude hypoxia", "test": "Serum homocysteine in rats exposed to acute altitude hypoxia", "assay_type": "in vivo, Wistar rat", "settings": "for Serum homocysteine: 0.11 g/kg", "protocol": "as §1, §2"}, "[6]": {"system": "rats exposed to acute altitude hypoxia", "test": "Liver ATP and glycogen in rats exposed to acute altitude hypoxia", "assay_type": "in vivo, Wistar rat", "experimental": "Determination of adenosine triphosphate (ATP): Perform enzyme-linked immunosorbent assay by double-antibody one-step sandwich method. To the coated microwells pre-coated with rat adenosine triphosphate (ATP) capture antibody, add in sequence the specimens, standard, and HRP-labeled detection antibody, and then incubate and wash thoroughly. Use a substrate TMB for color development, TMB is converted into blue under the catalysis of peroxidase and converted into the final yellow color under the action of acid. The color intensity is positively correlated with the rat adenosine triphosphate (ATP) in the sample. […] Determination of liver glycogen (GC): Perform enzyme-linked immunosorbent assay by double-antibody one-step sandwich method. To the coated microwells pre-coated with rat liver glycogen (GC) capture antibody, add in sequence the specimens, standard, and HRP-labeled detection antibody, and then incubate and wash thoroughly. Use a substrate TMB for color development, TMB is converted into blue under the catalysis of peroxidase and converted into the final yellow color under the action of acid. The color intensity is positively correlated with the rat liver glycogen (GC) in the sample."}, "[7]": {"settings": "female rats, hypoxia, 0.11 g/kg"}, "[8]": {"settings": "female rats, normoxia, 0.11 g/kg"}},
  "data": [
    {"smiles": "CC(=O)Nc1nnc(S(N)(=O)=O)s1", "note": "[Acetazolamide, reference compound]", "values": [
      {"measurement": "Glutamic oxalacetic transaminase", "setting": "[1]; [7]", "value": "73.20 ± 11.19", "unit": "U"},
      {"measurement": "Glutamic-pyruvic transaminase", "setting": "[1]; [7]", "value": "28.40 ± 2.30", "unit": "U"},
      {"measurement": "effect on glutamic-pyruvic transaminase and glutamic oxalacetic transaminase", "setting": "[1]; female rats, normoxia", "value": "no significant effects"},
      {"measurement": "Glutamic oxalacetic transaminase", "setting": "[1]; [8]", "value": "102.33 ± 11.02", "unit": "U"},
      {"measurement": "Glutamic-pyruvic transaminase", "setting": "[1]; [8]", "value": "41.67 ± 10.97", "unit": "U"},
      {"measurement": "effect on glutamic pyruvic transaminase and total bilirubin", "setting": "[1]; hypoxia exposed male rats", "value": "no significant effects"},
      {"measurement": "effect on serum glutamic oxalacetic transaminase", "setting": "[1]; hypoxia exposed male rats", "value": "increasing"},
      {"measurement": "Glutamic oxalacetic transaminase", "setting": "[1]; male rats, hypoxia, 0.11 g/kg", "value": "77.57 ± 6.80", "unit": "U"},
      {"measurement": "Glutamic-pyruvic transaminase", "setting": "[1]; male rats, hypoxia, 0.11 g/kg", "value": "44.00 ± 3.56", "unit": "U"},
      {"measurement": "Total bilirubin", "setting": "[1]; male rats, hypoxia, 0.11 g/kg", "value": "0.15 ± 0.16", "unit": "µmol/L"},
      {"measurement": "start time of exhaustion swimming death", "setting": "[2]; male mice, 6000 m", "value": "died earlier"},
      {"measurement": "Exhausted swimming survival time", "setting": "[2]; male mice, 6000 m, 7 days, acetazolamide positive drug control (0.16 g/kg)", "value": "130.64 ± 79.46", "unit": "min"},
      {"measurement": "increasing rate of survival time", "setting": "[2]; male mice, 6000 m, acetazolamide positive drug control (0.16 g/kg)", "value": 2.10, "unit": "%"},
      {"measurement": "effect on survival time after exhausting swimming / working ability under hypoxia", "setting": "[2]; mice under low oxygen exposure", "value": "no effect"},
      {"measurement": "Endo Dialdehyde", "setting": "[3]; [7]", "value": "13.09 ± 2.13", "unit": "nmol/L"},
      {"measurement": "Superoxide dismutase", "setting": "[3]; [7]", "value": "57.11 ± 3.40", "unit": "U/ml"},
      {"measurement": "Total antioxidants", "setting": "[3]; [7]", "value": "10.36 ± 0.81", "unit": "U/ml"},
      {"measurement": "Endo Dialdehyde", "setting": "[3]; [8]", "value": "14.12 ± 0.32", "unit": "nmol/L"},
      {"measurement": "Superoxide dismutase", "setting": "[3]; [8]", "value": "50.88 ± 3.34", "unit": "U/ml"},
      {"measurement": "Total antioxidants", "setting": "[3]; [8]", "value": "10.31 ± 0.20", "unit": "U/ml"},
      {"measurement": "effect on serum superoxide dismutase activity", "setting": "[3]; hypoxia exposed female rats", "value": "increasing"},
      {"measurement": "effect on serum total antioxidants and malondialdehyde", "setting": "[3]; hypoxia exposed female rats", "value": "no significant effects"},
      {"measurement": "effect on serum superoxide dismutase activity", "setting": "[3]; hypoxia exposed male rats", "value": "increasing"},
      {"measurement": "effect on serum total antioxidants and malondialdehyde", "setting": "[3]; male rats", "value": "no significant effects"},
      {"measurement": "Malonaldehyde", "setting": "[3]; male rats, hypoxia, 0.11 g/kg", "value": "3.24 ± 1.52", "unit": "nmol/L"},
      {"measurement": "Superoxide dismutase", "setting": "[3]; male rats, hypoxia, 0.11 g/kg", "value": "182.51 ± 4.46", "unit": "U/ml"},
      {"measurement": "effect on serum endothelin-1 and nitric oxide", "setting": "[4]; female rats after acute hypoxia exposure", "value": "no significant effects"},
      {"measurement": "Endothelin-1", "setting": "[4]; female rats, hypoxia", "value": "55.66 ± 6.39", "unit": "ng/mL"},
      {"measurement": "Nitric oxide", "setting": "[4]; female rats, hypoxia", "value": "4.96 ± 3.13", "unit": "µmol/L"},
      {"measurement": "effect on nitric oxide content", "setting": "[4]; female rats, normoxia", "value": "no significant effects"},
      {"measurement": "effect on serum endothelin-1 content", "setting": "[4]; female rats, normoxia", "value": "can reduce"},
      {"measurement": "Endothelin-1", "setting": "[4]; female rats, normoxia", "value": "36.18 ± 2.31", "unit": "ng/mL"},
      {"measurement": "Nitric oxide", "setting": "[4]; female rats, normoxia", "value": "4.08 ± 0.88", "unit": "µmol/L"},
      {"measurement": "effect on serum endothelin-1 and nitric oxide", "setting": "[4]; hypoxia exposed male rats", "value": "slight reduction"},
      {"measurement": "Endothelin-1", "setting": "[4]; male rats, hypoxia", "value": "42.41 ± 0.7", "unit": "ng/mL"},
      {"measurement": "Nitric oxide", "setting": "[4]; male rats, hypoxia", "value": "3.52 ± 1.25", "unit": "µmol/L"},
      {"measurement": "Serum homocysteine", "setting": "[5]; female rats, hypoxia", "value": "9.54 ± 0.98", "unit": "µmol/L"},
      {"measurement": "effect on serum homocysteine", "setting": "[5]; female rats, normoxia", "value": "no significant effects"},
      {"measurement": "Serum homocysteine", "setting": "[5]; female rats, normoxia", "value": "9.33 ± 1.16", "unit": "µmol/L"},
      {"measurement": "effect on serum homocysteine", "setting": "[5]; hypoxia exposed female rats", "value": "no significant effects"},
      {"measurement": "effect on serum homocysteine", "setting": "[5]; hypoxia exposed male rats", "value": "have been not found"},
      {"measurement": "Serum homocysteine", "setting": "[5]; male rats, hypoxia", "value": "11.13 ± 1.67", "unit": "µmol/L"},
      {"measurement": "effect on liver ATP and glycogen content", "setting": "[6]; female rats, after hypoxia exposure and normoxia", "value": "no significant effects"},
      {"measurement": "liver Glycogen", "setting": "[6]; [7]", "value": "3.71 ± 0.27", "unit": "ng/mL"},
      {"measurement": "liver ATP", "setting": "[6]; [8]", "value": "1.39 ± 0.54", "unit": "µg/mL"},
      {"measurement": "liver Glycogen", "setting": "[6]; [8]", "value": "2.75 ± 1.13", "unit": "ng/mL"},
      {"measurement": "effect on liver ATP and glycogen content", "setting": "[6]; male rats", "value": "no significant effects"},
      {"measurement": "liver Glycogen", "setting": "[6]; male rats, hypoxia, 0.11 g/kg", "value": "2.14 ± 0.21", "unit": "ng/mL"}
    ]}
  ]
}
